What was measured:
AnAA16A = target: T1, AnAA16A (Aspergillus nidulans, UniProt Q5BFA2); experiment: H2O2 production, ferric-xylenol orange assay; assay type: biochemical; settings: 1 mM Pyg as reductant, O2; pH 5.0, 30 °C
T1 construct: gene ANIA_00778; catalytic domain; C-terminal extension (residues 199-306) removed, native signal peptide used for secretion; C-terminal His-tag cut with TEV; Pichia pastoris X-33; N-terminal His not methylated; Cu(II)-saturated
T1 sequence (Q5BFA2 20-198): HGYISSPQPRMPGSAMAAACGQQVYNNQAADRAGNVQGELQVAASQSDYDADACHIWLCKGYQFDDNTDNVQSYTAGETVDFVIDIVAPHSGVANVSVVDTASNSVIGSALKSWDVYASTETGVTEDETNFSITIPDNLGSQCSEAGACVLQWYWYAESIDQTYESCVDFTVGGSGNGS

MtAA16A [1] = target: T2, MtAA16A (Thermothelomyces thermophilus, UniProt G2QH80); experiment: H2O2-driven oxidation to coerulignone ([…],6-DMP assay); assay type: biochemical; settings: co-substrate H2O2; Cu(II)-saturated enzyme
T2 construct: gene MYCTH_2306267; mature secreted protein, homologously produced in M. thermophila C1; signal peptide removed; N-terminal His methylated; Cu(II)-saturated
T2 sequence (G2QH80 entry or part of it): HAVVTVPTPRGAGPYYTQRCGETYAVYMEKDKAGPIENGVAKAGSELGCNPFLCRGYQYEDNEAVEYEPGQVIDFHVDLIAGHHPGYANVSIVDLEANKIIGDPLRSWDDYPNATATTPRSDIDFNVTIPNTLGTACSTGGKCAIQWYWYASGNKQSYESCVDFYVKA

MtAA16A [2] = target: T2, MtAA16A; experiment: thermal shift (nDSF); settings: may reflect reduction of the active-site copper rather than binding (authors)

Row | SMILES | H2O2 production, ferric-xylenol orange assay (AnAA16A) | H2O2-driven oxidation to coerulignone (2,6-DMP assay) (MtAA16A [1]) | thermal stabilization (MtAA16A [2])
1 | Oc1cccc(O)c1O [pyrogallol] | we observed accumulation of H2O2 in MtAA16A-Pyg and AnAA16A-Pyg samples | – | –
2 | COc1cccc(OC)c1O [syringol, 2,6-dimethoxyphenol] | – | MtAA16A is a copper-dependent enzyme able to oxidize syringol in the presence of H2O2 | syringol induced significant thermal stabilization (Figure S8), which is consistent with binding
